{"source": "ChEMBL document CHEMBL6078651", "about": "“Tyrosinase Inhibitory Properties of Compounds Isolated from Artocarpus integer Roots” (J Nat Prod, 2024)", "biological_target": "Mushroom tyrosinase (Agaricus bisporus) (UniProt O42713+Q00024+C7FF04+C7FF05)", "assay": "Inhibition of mushroom tyrosinase using L-DOPA as substrate at 50 uM preincubated for 10 mins followed by substrate addition measured after 20 mins by spectrophotometry", "assay_type": "protein assay", "conditions": "time 30.0 min", "note": "Activity calls are given as the source filed them. The calls are words filed in the database; no cut-off is given here."}
{"smiles": "C=C(C)C1Cc2c(oc3cc(OC)cc(O)c3c2=O)-c2c(O)cc(OC)c(O)c21", "note": "(stereo not given)", "values": [{"measurement": "inhibition", "value": "inactive"}]}
{"smiles": "CC(C)=CCC/C(C)=C/Cc1c2c(c(O)c3c(=O)c(CC=C(C)C)c(-c4cc(C)c(O)cc4O)oc13)C=CC(C)(C)O2", "values": [{"measurement": "inhibition", "value": "inactive"}]}
{"smiles": "COc1cc2c(c3oc(-c4cc(O)cc(O)c4)cc13)C=CC(C)(C)O2", "values": [{"measurement": "inhibition", "value": "inactive"}]}
{"smiles": "COc1cc2c(cc1O)-c1oc3cc(O)cc(O)c3c(=O)c1C(C=C(C)C)O2", "note": "(stereo not given)", "values": [{"measurement": "inhibition", "value": "inactive"}]}
{"smiles": "CC(C)c1cc2c(O)cc(-c3cc4ccc(O)cc4o3)cc2o1", "values": [{"measurement": "inhibition", "value": "inactive"}]}
{"smiles": "COc1cc2c(c3c1[C@H](C(C)(C)O)CC[C@@H]3c1ccc(O)cc1O)C=CC(C)(C)O2", "values": [{"measurement": "inhibition", "value": "inactive"}]}
{"smiles": "COc1cc(O)c2c(=O)c3c(oc2c1)-c1cc(O)c(OC)cc1OC3C=C(C)C", "note": "(stereo not given)", "values": [{"measurement": "inhibition", "value": "inactive"}]}
{"smiles": "C=C(C)c1cc2c(=O)c3c(O)c(CC=C(C)C)c(O)c(C/C=C(\\C)CCC=C(C)C)c3oc2c2c1[C@](O)(C(=O)OC)CC2=O", "values": [{"measurement": "inhibition", "value": "inactive"}]}
{"smiles": "CC(C)=CCC/C(C)=C/Cc1c2c(c(O)c3c(=O)c4c(oc13)-c1c(O)cc(O)c3c1C(C4)C(C)(C)O3)C=CC(C)(C)O2", "note": "(stereo not given)", "values": [{"measurement": "inhibition", "value": "inactive"}]}
{"smiles": "COc1cc(O)c2c(c1)O[C@H](c1cc(OC)c(OC)cc1OC)CC2=O", "values": [{"measurement": "inhibition", "value": "inactive"}]}
{"smiles": "CC(C)=CC1Oc2cc(O)ccc2-c2oc3cc(O)cc(O)c3c(=O)c21", "note": "(stereo not given)", "values": [{"measurement": "inhibition", "value": "inactive"}]}
{"smiles": "C=C(C)c1cc2c(=O)c3c(O)c4c(c(CC=C(C)C)c3oc2c2c1[C@](O)(C(=O)OC)CC2=O)OC(C)(C)C=C4", "values": [{"measurement": "inhibition", "value": "inactive"}]}
{"smiles": "C=CC(C)(C)/C=C/c1ccc(O)cc1", "values": [{"measurement": "inhibition", "value": "inactive"}]}
{"smiles": "C=C(C)c1cc2c(=O)c3c(O)c4c(c(C/C=C(\\C)CCC=C(C)C)c3oc2c2c1[C@](O)(C(=O)OC)CC2=O)OC(C)(C)C=C4", "values": [{"measurement": "inhibition", "value": "inactive"}]}
{"smiles": "CC(C)=CCc1c2c(c(O)c3c(=O)c4c(oc13)-c1c(O)cc(O)c3c1C(C4)C(C)(C)O3)C=CC(C)(C)O2", "note": "(stereo not given)", "values": [{"measurement": "inhibition", "value": "inactive"}]}
